Laboratory results from US10118918B2, “PRMT5 inhibitors and uses thereof” (Epizyme, Inc., priority 2012, dated 2018).

Key:
Z-138 cells = test: Z-138 Proliferation Assay (Cell Titer Glo); format: cell-based; conditions: Homo sapiens, 120 h, 5 days incubation
Description: [formula] Z-138 Proliferation Assay
Z-138 suspension cells were purchased from ATCC (American Type Culture Collection, Manassas, Va.). RPMI/Glutamax medium, penicillin-streptomycin, heat inactivated fetal bovine serum were purchased from Life Technologies, Grand Island, N.Y., USA. V-bottom polypropylene 384-well plates were purchased from Greiner Bio-One, Monroe, N.C., USA. Cell culture 384-well white opaque plates were purchased from Perkin Elmer, Waltham, Mass., USA. Cell-Titer Glo® was purchased from Promega Corporation, Madison, Wis., USA. SpectraMax M5 plate reader was purchased from Molecular Devices LLC, Sunnyvale, Calif., USA.
Z-138 suspension cells were maintained in growth medium (RPMI 1640 supplemented with 10% v/v heat inactivated fetal bovine serum and cultured at 37° C. under 5% CO2. Under assay conditions, cells were incubated in assay medium (RPMI 1640 supplemented with 10% v/v heat inactivated fetal bovine serum and 100 units/mL penicillin-streptomycin) at 37° C. under 5% CO2.
For the assessment of the effect of compounds on the proliferation of the Z-138 cell line, exponentially growing cells were plated in 384-well white opaque plates at a density of 10,000 cells/ml in a final volume of 50 μl of assay medium. A compound source plate was prepared by performing triplicate nine-point 3-fold serial dilutions in DMSO, beginning at 10 mM (final top concentration of compound in the assay was 20 μM and the DMSO was 0.2%). A 100 nL aliquot from the compound stock plate was added to its respective well in the cell plate. […] After addition of compounds, assay plates were incubated for 5 days at 37° C., 5% CO2, relative humidity >90%.
Cell viability was measured by quantitation of ATP present in the cell cultures, adding 35 μl of Cell Titer Glo® reagent to the cell plates. Luminescence was read in the SpectraMax M5 microplate reader. The concentration of compound inhibiting cell viability by 50% was determined using a 4-parametric fit of the normalized dose response curves.

[1] = test system: symmetric di-methyl arginine in Z-138 cells; test: Z-138 Methylation Assay (In Cell Western for symmetric di-methyl arginine and DNA content); format: cell-based; conditions: Homo sapiens, 96 hours incubation, read-out: ICW EC50
Description: [formula] Where top and bottom are the normally allowed to float, but may be fixed at 100 or 0 respectively in a 3-parameter fit. The Hill Coefficient normally allowed to float but may also be fixed at 1 in a 3-parameter fit. Y is the % inhibition and X is the compound concentration. Z-138 Methylation Assay
Z-138 suspension cells were purchased from ATCC (American Type Culture Collection, Manassas, Va.). RPMI/Glutamax medium, penicillin-streptomycin, heat inactivated fetal bovine serum, and D-PBS were purchased from Life Technologies, Grand Island, N.Y., USA. Odyssey blocking buffer, 800CW goat anti-rabbit IgG (H+L) antibody, and Licor Odyssey infrared scanner were purchased from Licor Biosciences, Lincoln, Nebr., USA. Symmetric di-methyl arginine antibody was purchased from EMD Millipore, Billerica, Mass., USA. 16% Paraformaldehyde was purchased from Electron Microscopy Sciences, Hatfield, Pa., USA.
Z-138 suspension cells were maintained in growth medium (RPMI 1640 supplemented with 10% v/v heat inactivated fetal bovine serum and 100 units/mL penicillin-streptomycin) and cultured at 37° C. under 5% CO2.
Cell Treatment, in Cell Western (ICW) for Detection of Symmetric Di-Methyl Arginine and DNA Content.
Z-138 cells were seeded in assay medium at a concentration of 50,000 cells per mL to a 384-well cell culture plate with 50 μL per well. Compound (100 nL) from 384 well source plates was added directly to 384 well cell plate. Plates were incubated at 37° C., 5% CO2 for 96 hours. After four days of incubation, 40 μL of cells from incubated plates were added to poly-D-lysine coated 384 well culture plates (BD Biosciences 356697). Plates were incubated at room temperature for 30 minutes then incubated at 37° C., 5% CO2 for 5 hours. After the incubation, 40 μL per well of 8% paraformaldehyde in PBS (16% paraformaldahyde was diluted to 8% in PBS) was added to each plate and incubated for 30 minutes. Plates were transferred to a Biotek 405 plate washer and washed 5 times with 100 μL per well of wash buffer (IX PBS with 0.1% Triton X-100 (v/v)). Next 30 μL per well of Odyssey blocking buffer were added to each plate and incubated 1 hour at room temperature. Blocking buffer was removed and 20 μL per well of primary antibody was added (symmetric di-methyl arginine diluted 1:100 in Odyssey buffer with 0.1% Tween 20 (v/v)) and plates were incubated overnight (16 hours) at 4° C. Plates were washed 5 times with 100 μL per well of wash buffer. Next 20 μL per well of secondary antibody was added (1:200 800CW goat anti-rabbit IgG (H+L) antibody, 1:1000 DRAQ5 (Biostatus limited) in Odyssey buffer with 0.1% Tween 20 (v/v)) and incubated for 1 hour at room temperature. The plates were washed 5 times with 100 μL per well wash buffer then 1 time with 100 μL per well of water. Plates were allowed to dry at room temperature then imaged on the Licor Odyssey machine which measures integrated intensity at 700 nm and 800 nm wavelengths. Both 700 and 800 channels were scanned.
First, the ratio for each well was determined by:
Each plate included fourteen control wells of DMSO only treatment (minimum inhibition) as well as fourteen control wells for maximum inhibition treated with 3 μM of a reference compound (Background wells). The average of the ratio values for each control type was calculated and used to determine the percent inhibition for each test well in the plate. Reference compound was serially diluted three-fold in DMSO for a total of nine test concentrations, beginning at 3 μM. Percent inhibition was determined and IC50 curves were generated using triplicate wells per concentration of compound. […]

Structure (SMILES) | EC50 (Z-138 cells) [nM] | EC50 [1] [nM]
Cn1ncc2ccc(OCC(=O)NC[C@H](O)CN3Cc4ccccc4C3)cc21 [compound 27] | > 20000 | 1000 to 10000
O=C(NC[C@H](O)CN1Cc2ccccc2C1)c1ccnc(NC2CCOCC2)c1 [compound 30] | 1000 to 10000 | 101 to 1000
O=C(NC[C@H](O)CN1Cc2ccccc2C1)c1cncc(NC2CCNC2)c1 (some centres unmarked) [compound 32] | > 20000 | 1000 to 10000
CS(=O)(=O)N1CCC(Nc2cncc(C(=O)NC[C@H](O)CN3Cc4ccccc4C3)c2)C1 (some centres unmarked) [compound 33] | > 20000 | 101 to 1000
